Read-outs that look alike come from different tables or passages of the source.
How the values were obtained:
QPCTL = target: T1, QPCTL (Homo sapiens, UniProt Q9NXS2); assay: Assay A: biochemical QPCTL activity assay (MALDI-TOF MS, CD47 peptide substrate); details: 0.5 nM enzyme, 10 μM CD47 peptide substrate; read-out: Inhibition of QPCTL: IC50
T1 construct: made in house
Protocol: (§1) QPCT or QPCTL dependent conversion of N-terminal glutamine to pyroglutamate of CD47 was monitored via MALDI-TOF MS. Test compounds were dissolved in 100% DMSO and serially diluted into clear 1,536-well microtiter plates. Enzymatic reactions were set up in assay buffer containing 20 mM Tris pH 7.5, 0.1 mM TCEP, 0.01% BSA, and 0.001% Tween20. […] The plates were incubated for 10 min in a humidified incubator at 24° C. Subsequently, 2.5 μL of CD47 peptide substrate surrogate (^19[…]^33) was added to each well (final concentration: 10 μM for QPCTL/20 μM for QPCT). The plates were mixed for 30 sec at 1,000 rpm and subsequently incubated for 40 min in a humidified incubator at 24° C. […] The plates were sealed with an adhesive foil, mixed for 30 s at 1,000 rpm and stored at room temperature until preparation of the MALDI target plates. […] QPCT or QPCTL activity was monitored by calculating the ratio between product and internal standard signals followed by normalization to high (100% activity) and low (0% activity) controls. Determination of compound potencies was obtained by fitting the dose-response data to a four-parameter logistical equation.

QPCT = target: T2, QPCT (Homo sapiens, UniProt Q16769); assay: Assay A: biochemical QPCT activity assay (MALDI-TOF MS, CD47 peptide substrate); details: 0.5 nM enzyme, 20 μM CD47 peptide substrate; read-out: Inhibition of QPCT: IC50
T2 construct: purchased Origine (OriGene) TP700028
T2 sequence (Q16769 29-361): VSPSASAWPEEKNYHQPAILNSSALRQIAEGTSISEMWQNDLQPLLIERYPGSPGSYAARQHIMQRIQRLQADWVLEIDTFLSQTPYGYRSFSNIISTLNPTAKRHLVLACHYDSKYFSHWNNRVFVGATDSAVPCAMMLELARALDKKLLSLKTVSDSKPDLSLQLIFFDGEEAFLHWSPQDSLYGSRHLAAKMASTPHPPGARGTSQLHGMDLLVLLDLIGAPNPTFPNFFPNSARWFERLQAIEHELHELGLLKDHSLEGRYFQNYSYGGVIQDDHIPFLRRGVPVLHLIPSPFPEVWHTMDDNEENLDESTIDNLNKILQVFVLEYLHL
Protocol: as §1

[1] = system: SIRPα signalling induced by Raji cells; assay: Assay B: SIRPα signalling assay using Raji cells; type: cell-based; details: Homo sapiens, read-out: Inhibition of SIRPα signalling induced by Raji cells: IC50
Protocol: (§2) Two cell types are independently used: the Raji cell line (lymphoblast-like human cell line derived from B lymphocytes from a Burkitt's lymphoma patient in 1963) and A549 cells (adenocarcinomic human alveolar basal epithelial cells).
(§3) Test compounds were dissolved in 100% DMSO and serially diluted into a white 384-well microtiter cell culture plate (PerkinElmer #60076780 in case of Raji assay; PDL-coated plates Greiner #781945 in case of A549 assay). 5000 Raji cells (ATCC #CC86) or 5000 A549 cells (ATCC #CCL-185) in Assay Complete Cell Plating reagent 30 (DiscoverX 93-0563R30B) were added per well. The assay plate was incubated for 48 h at 37° C., 95% humidity and 5% CO2. 15000 reporter cells (Jurkat PathHunter SIRPαV1, DiscoverX #93-1135C19) were added to each well, and the plate was incubated for 5 h at 37° C., 95% humidity and 5% CO2. Bioassay reagent 1 of the PathHunter Bioassay detection kit (DiscoverX 93-0001) was added to each well of the plate using a multichannel pipette followed by a 15 min incubation at room temperature. Afterwards bioassay reagent 2 was added followed by 60 min incubation at room temperature (incubation in the dark). The analysis of the data was performed using the luminescence signal generated by beta-galactosidase in the PathHunter reporter cell line. The luminescence measurement was done using a Pherastar Multi-Mode Reader. Dose-response curves & IC50 data were calculated with 4-parameter sigmoidal dose response formula.

[2] = system: SIRPα signalling induced by A549 cells; assay: Assay B: SIRPα signalling assay using A549 cells; type: cell-based; details: Homo sapiens, read-out: Inhibition of SIRPα signalling induced by A549 cells: IC50
Protocol: as §2, §3

[3] = Assay C: permeability in CACO-2 cells; type: in vitro ADME; details: human, pH 7.2; for efflux ratio at 2 h: Caco-2, permeability B-A/permeability A-B; for Papp A→B at 2 h: Caco-2, apical to basolateral
Protocol: Caco-2 cells (1-2×10^5 cells/1 cm^2 area) are seeded on filter inserts (Costar transwell polycarbonate or PET filters, 0.4 µm pore size) and cultured (DMEM) for 10 to 25 days. Compounds are dissolved in appropriate solvent (like DMSO, 1-20 mM stock solutions). […] The transport solution (TL) is applied to the apical or basolateral donor side for measuring A-B or B-A permeability (3 filter replicates), respectively. Samples are collected at the start and end of experiment from the donor and at various time intervals for up to 2 hours also from the receiver side for concentration measurement by HPLC-MS/MS or scintillation counting. Sampled receiver volumes are replaced with fresh receiver solution.
Efflux ratio (ER)=permeability B-A/permeability A-B

[4] = Raji cells, 48 h compound incubation, PathHunter SIRPαV1 reporter cells
[5] = A549 cells, 48 h compound incubation, PathHunter SIRPαV1 reporter cells

T1 sequence (Q9NXS2 whole entry): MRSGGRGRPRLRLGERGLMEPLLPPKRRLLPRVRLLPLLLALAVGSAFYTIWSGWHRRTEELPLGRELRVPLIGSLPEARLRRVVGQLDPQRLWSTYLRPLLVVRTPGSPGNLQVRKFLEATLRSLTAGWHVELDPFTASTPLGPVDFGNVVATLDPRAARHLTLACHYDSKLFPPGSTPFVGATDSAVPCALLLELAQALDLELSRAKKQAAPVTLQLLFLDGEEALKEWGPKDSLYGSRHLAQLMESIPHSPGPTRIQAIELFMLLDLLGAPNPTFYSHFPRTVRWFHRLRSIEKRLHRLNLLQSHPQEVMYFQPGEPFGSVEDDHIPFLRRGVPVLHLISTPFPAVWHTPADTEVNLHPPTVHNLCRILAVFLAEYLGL

SMILES | IC50 (QPCTL) | IC50 (QPCT) | IC50 [1, 4] | IC50 [2, 5] | efflux ratio at 2 h [3] | Papp A→B at 2 h [3] | IC50 ([1]; Raji, 48 h) | IC50 ([2]; A549, 48 h)
Cn1cnnc1[C@@H]1CCN(c2c(C#N)cc(C(F)(F)F)nc2-c2ccc(F)nc2)[C@@H](C2CC2)C1 (racemic) [Example 2, (rac)-3-[trans-2-cyclopropyl-4-(4-methyl-4H-1,2,4-triazol-3-yl)piperidin-1-yl]-6′-fluoro-6-(trifluoromethyl)-[2,3′-bipyridine]-4-carbonitrile] | 2 nM | 2 nM | 66 nM | 41 nM | 6.1 | 13 ×10⁻⁶ cm/s |  | 
Cn1cnnc1[C@@H]1CCN(c2c(C#N)cc(C(F)(F)F)nc2-c2cnc3nn(C(C)(C)C)cc3c2)[C@@H](C2CC2)C1 (racemic) [Example 3] | 1 nM | 1 nM | 11 nM | 11 nM | 39.1 | 1.1 ×10⁻⁶ cm/s |  | 
C[C@@H]1C[C@H](c2nncn2C)CCN1c1c(C#N)ccnc1-c1ccc(F)nc1 (racemic) [Example 11] | 3 nM | 27 nM | 89 nM |  |  |  |  | 
Cn1cnnc1C1CCN(c2c(C#N)cc(C(F)(F)F)nc2-c2ccc(F)nc2)C2(CC2)C1 (racemic) [Example 17] | 3 nM | 13 nM | 246 nM | 86 nM | 10.4 | 5.1 ×10⁻⁶ cm/s |  | 
Cn1cnnc1[C@@H]1CCN(c2c(C#N)cc(C(F)(F)F)nc2-c2ccc(F)nc2)[C@@H](C2CC2)C1 [Example 1, 3-[(2R,4R)-2-cyclopropyl-4-(4-methyl-4H-1,2,4-triazol-3-yl)piperidin-1-yl]-6′-fluoro-6-(trifluoromethyl)-[2,3′-bipyridine]-4-carbonitrile] | 1 nM | 2 nM | 27 nM | 27 nM | 4.4 | 17 ×10⁻⁶ cm/s |  | 
Cc1cnnn1C1CCN(c2ncccc2-c2ccc(F)nc2)CC1 [Example 3] | 52 nM | 482 nM | 2740 nM | 921 nM | 0.8 | 93 ×10⁻⁶ cm/s |  | 
C[C@H]1C[C@H](c2nncn2C)CCN1c1c(C#N)cc(C(F)(F)F)nc1-c1ccc(F)nc1 [Example 4, 6′-fluoro-3-[(2S,4R)-2-methyl-4-(4-methyl-4H-1,2,4-triazol-3-yl)piperidin-1-yl]-6-(trifluoromethyl)-[2,3′-bipyridine]-4-carbonitrile] | 6 nM | 74 nM | 925 nM |  | 4.6 | 15 ×10⁻⁶ cm/s |  | 
C[C@H]1C[C@H](c2nncn2C)CCN1c1c(C#N)ccnc1-c1ccc(F)nc1 [Example 5, 6′-fluoro-3-[(2S,4R)-2-methyl-4-(4-methyl-4H-1,2,4-triazol-3-yl)piperidin-1-yl]-[2,3′-bipyridine]-4-carbonitrile] | 1 nM | 2 nM | 48 nM | 57 nM | 5 | 3.6 ×10⁻⁶ cm/s |  | 
C[C@H]1C[C@H](c2nncn2C)CCN1c1c(C#N)ccnc1-c1ccnnc1 [Example 6, 3-[(2S,4R)-2-methyl-4-(4-methyl-4H-1,2,4-triazol-3-yl)piperidin-1-yl]-2-(pyridazin-4-yl)pyridine-4-carbonitrile] | 2 nM | 3 nM | 540 nM | 551 nM | 8.4 | 0.2 ×10⁻⁶ cm/s |  | 
Cn1cnnc1[C@@H]1CCN(c2c(C#N)cc(C(F)(F)F)nc2-c2cnc3nn(C(C)(C)C)cc3c2)[C@H](C2CC2)C1 [Example 7, 2-{2-tert-butyl-2H-pyrazolo[3,4-b]pyridin-5-yl}-3-[(2S,4R)-2-cyclopropyl-4-(4-methyl-4H-1,2,4-triazol-3-yl)piperidin-1-yl]-6-(trifluoromethyl)pyridine-4-carbonitrile] | 1 nM | 1 nM | 9 nM | 12 nM | 23.5 | 2 ×10⁻⁶ cm/s |  | 
Cn1cnnc1[C@@H]1CCN(c2c(C#N)cc(C(F)(F)F)nc2-c2ccc(F)nc2)[C@H](C2CC2)C1 [Example 8] | 1 nM | 6 nM | 47 nM | 47 nM | 3.3 | 22 ×10⁻⁶ cm/s |  | 
CC[C@@H]1C[C@H](c2nncn2C)CCN1c1c(C#N)cc(C(F)(F)F)nc1-c1ccc(F)nc1 [Example 9] | 18 nM | 50 nM | 325 nM | 109 nM | 3.8 | 22 ×10⁻⁶ cm/s |  | 
C[C@@H]1C[C@H](c2nncn2C)CCN1c1c(C#N)cc(C(F)(F)F)nc1-c1ccc(F)nc1 [Example 10, 6′-fluoro-3-[(2R,4R)-2-methyl-4-(4-methyl-4H-1,2,4-triazol-3-yl)piperidin-1-yl]-6-(trifluoromethyl)-[2,3′-bipyridine]-4-carbonitrile] | 10 nM | 23 nM | 1100 nM | 111 nM | 5.8 | 7.8 ×10⁻⁶ cm/s |  | 
C[C@@H]1C[C@](F)(c2nncn2C)CCN1c1c(C#N)ccnc1-c1ccc(F)nc1 [Example 13] | 6 nM | 14 nM | 301 nM | 236 nM | 2.4 | 22 ×10⁻⁶ cm/s |  | 
C[C@@H]1C[C@](F)(c2nncn2C)CCN1c1c(C#N)cc(C(F)(F)F)nc1-c1ccc(F)nc1 [Example 14] | 16 nM | 24 nM | 621 nM | 232 nM | 1.2 | 58 ×10⁻⁶ cm/s |  | 
C[C@@H]1C[C@](F)(c2nncn2C)CCN1c1c(C#N)cc(C(F)(F)F)nc1-c1ccnnc1 [Example 15] | 14 nM | 24 nM | 837 nM | 486 nM | 9.4 | 3.3 ×10⁻⁶ cm/s |  | 
C[C@@H]1C[C@](F)(c2nncn2C)CCN1c1c(C#N)cc(C(F)(F)F)nc1-c1cnc2nn(C(C)(C)C)cc2c1 [Example 16] | 7 nM | 5 nM | 124 nM | 74 nM | 7.1 | 9.2 ×10⁻⁶ cm/s |  | 
Cn1cnnc1C1CCN(c2ncccc2-c2ccc(F)nc2)CC1 [SEN177, reference compound] |  |  |  |  |  |  | 1360 nM | 214 nM

Reference: patent US20250066329A1, “PIPERIDINYLPYRIDINYLCARBONITRILE DERIVATIVES AS INHIBITORS OF GLUTAMINYL-PEPTIDE CYCLOTRANSFERASE AND GLUTAMINYL-PEPTIDE CYCLOTRANSFERASE LIKE PROTEIN” (Boehringer Ingelheim International GmbH, priority 2023, published 2025)
